Measurements taken from ChEMBL document CHEMBL5608235, “Tricyclic Benzo[1,3]oxazinyloxazolidinones as Potent Antibacterial Agents against Drug-Resistant Pathogens” (J Med Chem, 2024).
In brackets after ≈: the same amount, converted by molar mass. Activity calls are given as the source filed them. No cut-off for these calls is given here.

How the values were obtained:
Staphylococcus aureus [1] = test: Antibacterial activity against methicillin resistant Staphylococcus aureus ATCC 33592 infected in cyclophosphamide-induced immunosuppressed Kunming mouse assessed as reduction in pigment deposition in spleen at 50 mg/kg,po administration measured after 24 hrs by hematoxylin and eosin staining based microscopy; assay type: functional, organism-based
Staphylococcus aureus [2] = test: Antibacterial activity against methicillin resistant Staphylococcus aureus ATCC 33592 infected in cyclophosphamide-induced immunosuppressed Kunming mouse assessed as reduction in inflammatory cell infiltration in liver at 50 mg/kg,po administration measured after 24 hrs by hematoxylin and eosin staining based microscopy; assay type: functional, organism-based
[3] = Free AUC in BALB/c mouse at 10 mg/kg,po administration measured upto 24 hrs by LC-MS/MS analysis; assay type: ADME, organism-based; conditions: in vivo
Staphylococcus aureus [4] = test: Antibacterial activity against methicillin resistant Staphylococcus aureus ATCC 33592 infected in cyclophosphamide-induced immunosuppressed Kunming mouse assessed as reduction in inflammatory cell infiltration in kidney at 50 mg/kg,po administration measured after 24 hrs by hematoxylin and eosin staining based microscopy; assay type: functional, organism-based
[5] = Cytotoxicity against African green monkey Vero cells incubated for 48 hrs by MTT assay; assay type: toxicity, cell-based, Chlorocebus sabaeus
Cell membrane [6] = test: Disruption of cell membrane in methicillin resistant Staphylococcus aureus ATCC 33592 assessed as cell surface perforation at 1 ug/ml incubated for 6 hrs by Scanning electron microscopic analysis; assay type: cell membranes; conditions: dose 1.0 µg/ml
Staphylococcus aureus [7] = test: Antibacterial activity against vancomycin intermediate Staphylococcus aureus ATCC700699 assessed as inhibition of bacterial growth incubated for 7 days by alamar blue assay; assay type: functional; conditions: ATCC700699, 168 h, time 7 day
Staphylococcus aureus [8] = test: Inhibition of biofilm formation in Staphylococcus aureus ATCC 29213 at 10 ug/ml incubated for 48 hrs by crystal violet staining based assay; assay type: functional, organism-based; conditions: dose 10.0 µg/ml
Staphylococcus aureus [9] = test: Antibacterial activity against methicillin resistant Staphylococcus aureus ATCC 33592 infected in cyclophosphamide-induced immunosuppressed Kunming mouse assessed as increase in body weight at 50 mg/kg,po administration measured for 7 days; assay type: functional, organism-based; conditions: time 7.0 day
Enterococcus faecalis = test: Antibacterial activity against Enterococcus faecalis ATCC29212 assessed as inhibition of bacterial growth incubated for 18 hrs by microdilution broth assay; assay type: functional
Staphylococcus aureus [10] = test: Antibacterial activity against Linezolid resistant Staphylococcus aureus clinical isolate 20-2 assessed as inhibition of bacterial growth incubated for 7 days by alamar blue assay; assay type: functional; conditions: clinical isolate 20-2, 168 h, time 7 day
[11] = tested on: Mycobacterium tuberculosis; test: Antibacterial activity against Mycobacterium tuberculosis H37Rv assessed as inhibition of bacterial growth incubated for 7 days by alamar blue assay; assay type: functional; conditions: 168 h, time 7 day
Staphylococcus aureus [12] = test: Antibacterial activity against methicillin resistant Staphylococcus aureus clinical isolate 20-1 assessed as inhibition of bacterial growth incubated for 7 days by alamar blue assay; assay type: functional; conditions: clinical isolate 20-1, 168 h, time 7 day
Staphylococcus aureus [13] = test: Inhibition of protein synthesis in Staphylococcus aureus ATCC 29213 by translation assay; assay type: functional, organism-based
Bacillus subtilis = test: Antibacterial activity against Bacillus subtilis ATCC6633 assessed as inhibition of bacterial growth incubated for 18 hrs by microdilution broth assay; assay type: functional
[14] = tested on: Staphylococcus epidermidis; test: Antibacterial activity against methicillin resistant Staphylococcus epidermidis clinical isolate 20-1 assessed as inhibition of bacterial growth incubated for 7 days by alamar blue assay; assay type: functional; conditions: clinical isolate 20-1, 168 h, time 7 day
Staphylococcus aureus [15] = test: Antibacterial activity against methicillin resistant Staphylococcus aureus clinical isolate 20-2 assessed as inhibition of bacterial growth incubated for 7 days by alamar blue assay; assay type: functional; conditions: clinical isolate 20-2, 168 h, time 7 day
Staphylococcus aureus [16] = test: Antibacterial activity against Linezolid resistant Staphylococcus aureus assessed as inhibition of bacterial growth incubated for 7 days by alamar blue assay; assay type: functional; conditions: 168 h, time 7 day
Staphylococcus aureus [17] = test: Antibacterial activity against Linezolid resistant Staphylococcus aureus clinical isolate 20-1 assessed as inhibition of bacterial growth incubated for 7 days by alamar blue assay; assay type: functional; conditions: clinical isolate 20-1, 168 h, time 7 day
Staphylococcus aureus [18] = test: Antibacterial activity against methicillin resistant Staphylococcus aureus ATCC 33592 infected in cyclophosphamide-induced immunosuppressed Kunming mouse assessed as reduction in histopathological change in heart at 50 mg/kg,po administration measured after 24 hrs by hematoxylin and eosin staining based microscopy; assay type: functional, organism-based
[19] = tested on: Staphylococcus epidermidis; test: Antibacterial activity against Staphylococcus epidermidis ATCC12228 assessed as inhibition of bacterial growth incubated for 18 hrs by microdilution broth assay; assay type: functional
Staphylococcus aureus [20] = test: Antibacterial activity against methicillin resistant Staphylococcus aureus ATCC 33592 infected in cyclophosphamide-induced immunosuppressed Kunming mouse assessed as reduction in congestion in spleen at 50 mg/kg,po administration measured after 24 hrs by hematoxylin and eosin staining based microscopy; assay type: functional, organism-based
Staphylococcus aureus [21] = test: Inhibition of biofilm formation in methicillin resistant Staphylococcus aureus ATCC 33592 at 0.1 to 10 ug/ml incubated for 48 hrs by crystal violet staining based assay; assay type: functional, organism-based; conditions: dose 0.1-10 µg/ml
Enterococcus = test: Antibacterial activity against vancomycin resistant Enterococcus clinical isolate 20-1 assessed as inhibition of bacterial growth incubated for 7 days by alamar blue assay; assay type: functional; conditions: clinical isolate 20-1, 168 h, time 7 day
Staphylococcus aureus [22] = test: Antibacterial activity against methicillin resistant Staphylococcus aureus ATCC 33592 infected in cyclophosphamide-induced immunosuppressed Kunming mouse assessed as reduction in histopathological change in spleen at 50 mg/kg,po administration measured after 24 hrs by hematoxylin and eosin staining based microscopy; assay type: functional, organism-based
[23] = tested on: Staphylococcus epidermidis; test: Antibacterial activity against methicillin resistant Staphylococcus epidermidis clinical isolate 20-2 assessed as inhibition of bacterial growth incubated for 7 days by alamar blue assay; assay type: functional; conditions: clinical isolate 20-2, 168 h, time 7 day
Cell membrane [24] = test: Disruption of cell membrane in methicillin resistant Staphylococcus aureus ATCC 33592 assessed as cell shrinkage at 1 ug/ml incubated for 6 hrs by Scanning electron microscopic analysis; assay type: cell membranes; conditions: dose 1.0 µg/ml

SMILES: CC(=O)NC[C@H]1CN(c2ccc(N3CCOCC3)c(F)c2)C(=O)O1 [LINEZOLID]
- Activity (Staphylococcus aureus [1]): Active
- Activity (Staphylococcus aureus [2]): Active
- fAUC [3]: 5260 ng·h/mL
- Activity (Staphylococcus aureus [4]): Active
- IC50 at 48 h [5]: > 64 µg/mL
- Activity (Cell membrane [6]): Active
- MIC (Staphylococcus aureus [7]): 1 µg/mL (≈ 2.96 µM)
- inhibition (Staphylococcus aureus [8]): Active
- Activity (Staphylococcus aureus [9]): Active
- MIC (Enterococcus faecalis): 0.5 µg/mL (≈ 1.48 µM)
- MIC (Staphylococcus aureus [10]): 8 µg/mL (≈ 23.7 µM)
- MIC [11]: 0.8 µg/mL (≈ 2.37 µM)
- MIC (Staphylococcus aureus [12]): 1 µg/mL (≈ 2.96 µM)
- IC50 (Staphylococcus aureus [13]): 1.1 µg/mL (≈ 3.26 µM)
- MIC (Bacillus subtilis): > 64 µg/mL
- MIC [14]: 0.5 µg/mL (≈ 1.48 µM)
- MIC (Staphylococcus aureus [15]): 1 µg/mL (≈ 2.96 µM)
- MIC (Staphylococcus aureus [16]): 8 µg/mL (≈ 23.7 µM)
- MIC (Staphylococcus aureus [17]): 8 µg/mL (≈ 23.7 µM)
- Activity (Staphylococcus aureus [18]): Active
- MIC [19]: 2 µg/mL (≈ 5.93 µM)
- Activity (Staphylococcus aureus [20]): Active
- inhibition (Staphylococcus aureus [21]): Active
- MIC (Enterococcus): 2 µg/mL (≈ 5.93 µM)
- Activity (Staphylococcus aureus [22]): Active
- MIC [23]: 0.5 µg/mL (≈ 1.48 µM)
- Activity (Cell membrane [24]): Active
